Source: patent publication US9809597B2, “Ganciclovir derivatives for modulating innate and adaptive immunity and for use in immunotherapy” (The Board of Trustees of the Leland Stanford Junior …, priority 2015, dated 2017)

Legend:
BV-2 microglia = experiment: Secreted factors analyzed by Luminex array in BV-2 supernatants; assay type: cell-based, mouse
Description: BV-2 mouse microglia cells were grown in DMEM+10% FBS and THP-1 human monocyte cells were grown in RPMI-40+10% FBS+0.05 mM β-mercaptoethanol at 37° C., 5% CO2. Adherent cells were split using 1×TrypLE (Gibco). For cellular assays, cells were treated with the following concentrations of drugs as indicated in the DMEM without serum: 100-200 μM ganciclovir, 10 ng/ml IFNγ (R&D systems), 100 ng/ml LPS (Sigma-Aldrich), 1-10 μM Fludarabine (Selleckchem), 1 μM Ruxolitinib (Selleckchem), 1 μM TG-101348 (Selleckchem), 1 μM Amlexanox (Tocris bioscience) unless otherwise noted. All experiments were run in triplicates and replicated at least 3 times with cell lines and at least twice with primary microglia. Average data are shown for cell lines and representative data are shown for primary cells. Secreted signaling proteins were measured in supernatants from cultured cells stimulated with GCV and conditioned for 24 hours in the absence of serum using two independent Luminex arrays (Human Immune Monitoring Center, Stanford and Eve technologies, Canada). Nitrite assay was performed on conditioned culture supernatants of cells stimulated with drugs for 24 hours using the Griess Reagent System (Promega) according to manufacturer's instructions. To assess cellular viability, cell confluence was measured using an automated microscope (Cellavista; Roche).

[1] = test system: wildtype and STING^gt/gt mice with EAE; experiment: EAE induction and analysis; assay type: in vivo, mouse
[2] = BV-2 culture supernatants, no exogenous stimulation, 24 hours GCV
[3] = STING^gt/gt mice with EAE, day 18
[4] = STING^gt/gt mice, 18 days following disease induction
[5] = cerebella of wildtype mice with EAE, day 18

`Nc1nc(O)c2ncn(COC(CO)CO)c2n1` [GCV, Ganciclovir] was tested, and the CCL2 (BV-2 microglia; 100 μM GCV, 24 hours) was 28.8 ± 1.08 pg/mL, the IL12p70 (BV-2 microglia; 100 μM GCV, 24 hours) was 0.34 ± 0.05 pg/mL and the IL17A (BV-2 microglia; 100 μM GCV, 24 hours) was 3.5 ± 0.12 pg/mL. For the same compound, the MCSF (BV-2 microglia; 100 μM GCV, 24 hours) was 23.76 ± 3.77 pg/mL, the MIP1β (BV-2 microglia; 100 μM GCV, 24 hours) was 537.14 ± 449.94 ng/mL and the MIP2 (BV-2 microglia; 100 μM GCV, 24 hours) was 14.77 ± 1.50 pg/mL. It also gave a TGFβ (BV-2 microglia; 100 μM GCV, 24 hours) of 6.04 ± 0.58 pg/mL, a VEGF (BV-2 microglia; 100 μM GCV, 24 hours) of 1.65 ± 0.51 pg/mL and a CCL2 (BV-2 microglia; 200 μM GCV, 24 hours) of 28.25 ± 2.19 pg/mL. It also gave an IL12p70 (BV-2 microglia; 200 μM GCV, 24 hours) of 0.16 ± 0.11 pg/mL, an IL17A (BV-2 microglia; 200 μM GCV, 24 hours) of 2.54 ± 1.28 pg/mL and an IL22 (BV-2 microglia; 200 μM GCV, 24 hours) of 3.09 ± 2.25 pg/mL. The MCSF (BV-2 microglia; 200 μM GCV, 24 hours) was 25.48 ± 8.28 pg/mL, the MIP1β (BV-2 microglia; 200 μM GCV, 24 hours) was 4.13 ± 3.36 ng/mL and the MIP2 (BV-2 microglia; 200 μM GCV, 24 hours) was 13.02 ± 4.25 pg/mL. The TGFβ (BV-2 microglia; 200 μM GCV, 24 hours) was 5.36 ± 3.30 pg/mL, the VEGF (BV-2 microglia; 200 μM GCV, 24 hours) was 1.56 ± 0.27 pg/mL and the “secreted CCL5 protein” value (BV-2 microglia; [2]) was “significantly increasing”. The “secreted CXCL10 protein” value (BV-2 microglia; [2]) was “significantly increasing”, the “secreted IL-18 protein” value (BV-2 microglia; [2]) was “decreasing” and the “secreted IL-22 protein” value (BV-2 microglia; [2]) was “significantly increasing”. The “secreted TNFα protein” value (BV-2 microglia; [2]) was “significantly increasing”, the “overall Iba1 immunoreactivity” value [1, 3] was “trend towards reducing” and the overall cell proliferation [1, 3] was “no reduction”. The “proliferating T-cells” value [1, 3] was “no reduction”, the proliferating microglia [1, 3] was “no reduction” and the “disease severity and incidence compared to untreated mice” value [1, 4] was “not significantly different”. For the same compound, the “lethality compared to untreated mice” value [1, 4] was “even higher”, the “effect on EAE in mice lacking STING” value ([1]; STING^gt/gt mice, GCV 100 mg/kg daily) was “only partially ameliorated EAE during the early phase of disease” and the “CD3+BrDU+ proliferating T-cells” value [1, 5] was “did not change”. The “Iba1+BrDU+ proliferating microglia” value [1, 5] was “significantly decreased”, the “numbers of BrDU+ proliferating cells” value [1, 5] was “significantly decreased” and the “numbers of Iba1+ microglia” value [1, 5] was “significantly decreased”. For the same compound, the lethality ([1]; wildtype mice, 18 days following disease induction, untreated 20%) was 0%, the disease incidence ([1]; wildtype mice, 18 days following disease induction, untreated 100%) was 40% and the “disease severity (EAE score)” value ([1]; wildtype mice, GCV 100 mg/kg intra-peritoneally daily from day 3) was “drastically reduces disease severity”.
